Source: PubChem BioAssay (NCI)
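Exposure lasted 48 hours, with cells grown in 96-well plates and compounds tested at five concentrations. GI50: concentration for 50% inhibition of growth. Definition used: TGI = concentration required for complete inhibition of growth.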

Tests used:
Assay in all cases: DTP human tumour cell line panel, 48 h
A549 NSCLC = system: A549 NSCLC
HL-60(TB) leukemia = system: HL-60(TB) leukemia
KM12 colon = system: KM12 colon
NCI-H23 lung = system: NCI-H23 lung
NCI-H460 lung = system: NCI-H460 lung
OVCAR-5 ovarian = system: OVCAR-5 ovarian
RXF 393 renal = system: RXF 393 renal
SW-620 colon = system: SW-620 colon
UACC-257 melanoma = system: UACC-257 melanoma
UO-31 renal = system: UO-31 renal

| Compound | TGI (A549 NSCLC) [µM] | TGI (HL-60(TB) leukemia) [µM] | TGI (KM12 colon) [µM] | TGI (NCI-H23 lung) [µM] | TGI (NCI-H460 lung) [µM] | TGI (OVCAR-5 ovarian) [µM] | TGI (RXF 393 renal) [µM] | TGI (SW-620 colon) [µM] | TGI (UACC-257 melanoma) [µM] | TGI (UO-31 renal) [µM] | GI50 (A549 NSCLC) [µM] | GI50 (HL-60(TB) leukemia) [nM] | GI50 (KM12 colon) [nM] | GI50 (NCI-H23 lung) [nM] | GI50 (NCI-H460 lung) [nM] | GI50 (OVCAR-5 ovarian) [nM] | GI50 (RXF 393 renal) [nM] | GI50 (SW-620 colon) [nM] | GI50 (UACC-257 melanoma) [nM] | GI50 (UO-31 renal) [nM] |
| --- | --- | --- | --- | --- | --- | --- | --- | --- | --- | --- | --- | --- | --- | --- | --- | --- | --- | --- | --- | --- |
| CCOC(=O)/C=C(\C)c1ccc(OC)cc1 | > 100 | > 100 | > 100 | > 100 | > 100 | > 100 | > 100 | > 100 | > 100 | > 100 |  |  |  |  |  |  |  |  |  |  |
| Cc1ccc(S(N)(=O)=O)cc1 | > 1000 | > 1000 | > 1000 | > 1000 | > 1000 | > 1000 | > 1000 | > 1000 | > 1000 | > 1000 |  |  |  |  |  |  |  |  |  |  |
| NCc1ccc(C(=O)O)cc1 | > 100 | > 100 | > 100 | > 100 | > 100 | > 100 | > 100 | > 100 | > 100 | > 100 |  |  |  |  |  |  |  |  |  |  |
| COc1cc(C2c3cc4c(cc3[C@@H](Nc3cccc(C(C)=O)c3)C3COC(=O)[C@H]23)OCO4)cc(OC)c1O (stereo not given in full) | 1.99 | 0.328 | 5.67 | 3.14 | 1.07 | > 59.7 | 5.4 | > 38.2 | 8.57 | 6.89 |  |  |  |  |  |  |  |  |  |  |
| Brc1ccccc1-c1ncc(-c2ccccc2)o1 | > 100 | > 100 | 41.7 | > 100 | > 100 | > 100 | 55.9 | > 100 | > 100 | > 100 |  |  |  |  |  |  |  |  |  |  |
| COc1ccc(-c2cc(N3CCN(c4ccccc4)CC3)c(C#N)c(=O)o2)cc1 | > 100 | > 100 | > 100 | > 100 | > 100 | > 100 | 38 | > 100 | > 100 | 44.8 |  |  |  |  |  |  |  |  |  |  |
| N#Cc1c(NC(=S)NC(=O)c2ccccc2)nc2c(c1-c1ccccc1)CCCC2 | > 100 | > 100 | > 100 | > 100 | > 100 | > 100 | 56.5 | > 100 | > 100 | > 100 |  |  |  |  |  |  |  |  |  |  |
| CCC(C)C(=O)c1c(O)c(C/C=C(\C)CCC=C(C)C)c(O)c2c(C(O)CC)cc(=O)oc12 (stereo not given) | 11.4 | 3.48 | 11.4 | 3.89 | 7.23 | 17.9 | 7.19 | 14 | 6.84 | 6.95 |  |  |  |  |  |  |  |  |  |  |
| CC(C)(Br)C1(O)CCCN1C(=O)c1ccccc1 (stereo not given) | > 100 | > 100 | > 100 | > 100 | > 100 | > 100 | > 100 | > 100 | > 100 | > 100 |  |  |  |  |  |  |  |  |  |  |
| C#CC[C@@H]1C[C@]2(C)[C@H]3CC=C4[C@H]5CC(C)(C)CC[C@]5(C(=O)NCCCCN)CC[C@@]4(C)[C@]3(C)CC[C@H]2C(C)(C)[C@H]1OC(C)=O | 3.27 | 3.71 | 3.18 | 3.47 | 3.47 | 2.99 | 2.95 | 3.39 | 3.61 | 2.71 | 1.66 | 1770 | 1680 | 1750 | 1840 | 1620 | 1520 | 1710 | 1870 | 1410 |
| ClCc1c(Cl)c(Cl)c(Cl)c(CCl)c1Cl | 16.3 | 4.07 | 3.48 | 6.67 | 3.39 | 4.18 | 3.08 | 3.12 | 3.45 | 3.12 | 4.8 | 2030 | 1850 | 2300 | 1790 | 1930 | 1710 | 1710 | 1840 | 1630 |
| CCO/N=[N+](\[O-])N(CC)CC | > 100 | > 100 | > 100 | > 100 | > 100 | > 100 | > 100 | > 100 | > 100 | > 100 |  |  |  |  |  |  |  |  |  |  |
